Data reported in patent US9284333B2, “Fused pyrroledicarboxamides and their use as pharmaceuticals” (SANOFI, priority 2012, dated 2016).

Molecular target: Human TASK-1 channels (Homo sapiens (Human), UniProt O14649)
Test: Determination of the activity on the TASK-1 channel in Xenopus oocytes (two-microelectrode voltage clamp)
Type: cell-based
Conditions: for IC50: human TASK-1 expressed in Xenopus oocytes, room temperature, read-out: IC50 value for TASK-1 inhibition
Summary of the method: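 Xenopus oocytes were injected with human TASK-1 cRNA and recorded two days later by two-microelectrode voltage clamp, holding at −90 mV with 500 ms steps to 40 mV. Superfusion used ND96, pH 7.4, at room temperature, with rising compound concentrations; percentage inhibition of control current was fitted to a dose-response curve for IC50.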

Chain of Human TASK-1 channels (O14649 whole entry): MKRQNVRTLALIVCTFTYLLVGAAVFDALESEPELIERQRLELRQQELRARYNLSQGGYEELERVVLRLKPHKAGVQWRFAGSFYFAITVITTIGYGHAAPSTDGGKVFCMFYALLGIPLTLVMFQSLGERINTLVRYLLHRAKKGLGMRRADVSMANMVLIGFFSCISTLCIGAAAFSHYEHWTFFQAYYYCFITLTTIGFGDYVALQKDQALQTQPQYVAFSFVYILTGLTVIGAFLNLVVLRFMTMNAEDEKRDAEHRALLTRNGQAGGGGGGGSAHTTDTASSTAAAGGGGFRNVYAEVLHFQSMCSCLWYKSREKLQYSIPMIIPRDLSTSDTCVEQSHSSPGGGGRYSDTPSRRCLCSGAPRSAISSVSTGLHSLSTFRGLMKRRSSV

Structure (SMILES)	inhibition at 5 µM (compound concentration 5 μM)	IC50
CC[C@H](NC(=O)c1cc(C(=O)N2CCC[C@@H]2C)n2c1COCC2)c1c(F)cc(C(F)(F)F)cc1F [16cm, 6-((S)-2-Methyl-pyrrolidine-1-carbonyl)-3,4-dihydro-1H-pyrrolo[2,1-c][1,4]oxazine-8-carboxylic acid [(S)-1-(2,6-difluoro-4-trifluoromethyl-phenyl)-propyl]-amide]	85%	–
CC[C@@H](NC(=O)c1cc(C(=O)N2CCC[C@@H]2C)n2c1COCC2)c1cnc(OC)c(C(F)(F)F)c1 [16cn, 6-((S)-2-Methyl-pyrrolidine-1-carbonyl)-3,4-dihydro-1H-pyrrolo[2,1-c][1,4]oxazine-8-carboxylic acid [(R)-1-(6-methoxy-5-trifluoromethyl-pyridin-3-yl)-propyl]-amide]	–	100 nM
CC[C@@H](NC(=O)c1cc(C(=O)N2CCC[C@@H]2C)n2c1COCC2)c1cnc(Cl)c(Cl)c1 [16co, 6-((S)-2-Methyl-pyrrolidine-1-carbonyl)-3,4-dihydro-1H-pyrrolo[2,1-c][1,4]oxazine-8-carboxylic acid [(R)-1-(5,6-dichloro-pyridin-3-yl)-propyl]-amide]	–	140 nM
CC[C@@H](NC(=O)c1cc(C(=O)N2CCC[C@@H]2C)n2c1COCC2)c1ccc(C(F)(F)F)cc1C(F)(F)F [16cp, 6-((S)-2-Methyl-pyrrolidine-1-carbonyl)-3,4-dihydro-1H-pyrrolo[2,1-c][1,4]oxazine-8-carboxylic acid [(R)-1-(2,4-bis-trifluoromethyl-phenyl)-propyl]-amide]	–	970 nM
CC[C@@H](NC(=O)c1cc(C(=O)N2CCC[C@@H]2C)n2c1COCC2)c1ccc(C(F)(F)F)cc1Cl [16cq, 6-((S)-2-Methyl-pyrrolidine-1-carbonyl)-3,4-dihydro-1H-pyrrolo[2,1-c][1,4]oxazine-8-carboxylic acid [(R)-1-(2-chloro-4-trifluoromethyl-phenyl)-propyl]-amide]	–	300 nM
CC[C@@H](NC(=O)c1cc(C(=O)N2CCC[C@@H]2C)n2c1COCC2)c1ccc(Cl)c(C(F)(F)F)c1 [16cs, 6-((S)-Methyl-pyrrolidine-1-carbonyl)-3,4-dihydro-1H-pyrrolo[2,1-c][1,4]oxazine-8-carboxylic acid [(R)-1-(4-chloro-3-trifluoromethyl-phenyl)-propyl]-amide]	–	290 nM
CC[C@@H](NC(=O)c1cc(C(=O)N2CCC[C@@H]2C)n2c1COCC2)c1ccc(C(F)(F)F)cc1F [16ct, 6-((S)-2-Methyl-pyrrolidine-1-carbonyl)-3,4-dihydro-1H-pyrrolo[2,1-c][1,4]oxazine-8-carboxylic acid [(R)-1-(2-fluoro-4-trifluoromethyl-phenyl)-propyl]-amide]	–	210 nM
CC[C@@H](NC(=O)c1cc(C(=O)N2CCC[C@@H]2C)n2c1COCC2)c1cnc(C(F)(F)F)c(OC)c1 [16cw, 6-((S)-2-Methyl-pyrrolidine-1-carbonyl)-3,4-dihydro-1H-pyrrolo[2,1-c][1,4]oxazine-8-carboxylic acid [(R)-1-(5-methoxy-6-trifluoromethyl-pyridin-3-yl)-propyl]-amide]	–	2400 nM
CC[C@@H](NC(=O)c1cc(C(=O)N2CCCC2)n2c1COCC2)c1ccccc1 [16cx, 6-(Pyrrolidine-1-carbonyl)-3,4-dihydro-1H-pyrrolo[2,1-c][1,4]oxazine-8-carboxylic acid ((R)-1-phenyl-propyl)-amide]	–	74 nM
CC[C@@H](NC(=O)c1cc(C(=O)N2CCCC2)n2c1COCC2)c1ccccc1Cl [16cy, 6-(Pyrrolidine-1-carbonyl)-3,4-dihydro-1H-pyrrolo[2,1-c][1,4]oxazine-8-carboxylic acid [(R)-1-(2-chloro-phenyl)-propyl]-amide]	–	210 nM
CCC(NC(=O)c1cc(C(=O)N2CCCC2)n2c1COCC2)c1ccccc1OC(F)F (stereo not shown) [16cz, 6-(Pyrrolidine-1-carbonyl)-3,4-dihydro-1H-pyrrolo[2,1-c][1,4]oxazine-8-carboxylic acid [1-(2-difluoromethoxy-phenyl)-propyl]-amide]	–	310 nM
CC[C@@H](NC(=O)c1cc(C(=O)N2CCC[C@@H]2C)n2c1COCC2)c1ccc(C#N)c(Cl)c1 [16d, 6-((S)-2-Methyl-pyrrolidine-1-carbonyl)-3,4-dihydro-1H-pyrrolo[2,1-c][1,4]oxazine-8-carboxylic acid [(R)-1-(3-chloro-4-cyano-phenyl)-propyl]-amide]	–	240 nM
CC[C@@H](NC(=O)c1cc(C(=O)N2CCCC2)n2c1COCC2)c1ccccc1C(F)(F)F [16da, 6-(Pyrrolidine-1-carbonyl)-3,4-dihydro-1H-pyrrolo[2,1-c][1,4]oxazine-8-carboxylic acid [(R)-1-(2-trifluoromethyl-phenyl)-propyl]-amide]	–	440 nM
CC[C@@H](NC(=O)c1cc(C(=O)N2CCCC2)n2c1COCC2)c1ccc(F)cc1Cl [16db, 6-(Pyrrolidine-1-carbonyl)-3,4-dihydro-1H-pyrrolo[2,1-c][1,4]oxazine-8-carboxylic acid [(R)-1-(2-chloro-4-fluoro-phenyl)-propyl]-amide]	–	90 nM
CC[C@@H](NC(=O)c1cc(C(=O)N2CCCC2)n2c1COCC2)c1ccc(F)cc1F [16de]	–	49 nM
O=C(NC(c1ccc(F)cc1)C(F)(F)F)c1cc(C(=O)N2CCCC2)n2c1COCC2 (stereo not shown) [16df, 6-(Pyrrolidine-1-carbonyl)-3,4-dihydro-1H-pyrrolo[2,1-c][1,4]oxazine-8-carboxylic acid [2,2,2-trifluoro-1-(4-fluoro-phenyl)-ethyl]-amide]	–	1910 nM
O=C(N[C@@H](c1ccc(F)cc1)C1CC1)c1cc(C(=O)N2CCCC2)n2c1COCC2 [16dg, 6-(Pyrrolidine-1-carbonyl)-3,4-dihydro-1H-pyrrolo[2,1-c][1,4]oxazine-8-carboxylic acid [(R)-cyclopropyl-(4-fluoro-phenyl)-methyl]-amide]	–	300 nM
O=C(N[C@H](c1ccc(F)cc1)C1CC1)c1cc(C(=O)N2CCCC2)n2c1COCC2 [16dh, 6-(Pyrrolidine-1-carbonyl)-3,4-dihydro-1H-pyrrolo[2,1-c][1,4]oxazine-8-carboxylic acid [(S)-cyclopropyl-(4-fluoro-phenyl)-methyl]-amide]	–	290 nM
O=C(NC(c1ccccc1)c1ccccc1)c1cc(C(=O)N2CCCC2)n2c1COCC2 [16di, 6-(Pyrrolidine-1-carbonyl)-3,4-dihydro-1H-pyrrolo[2,1-c][1,4]oxazine-8-carboxylic acid benzhydryl-amide]	–	1200 nM
O=C(NC(CC(F)(F)F)c1ccccc1)c1cc(C(=O)N2CCCC2)n2c1COCC2 (stereo not shown) [16dj, 6-(Pyrrolidine-1-carbonyl)-3,4-dihydro-1H-pyrrolo[2,1-c][1,4]oxazine-8-carboxylic acid (3,3,3-trifluoro-1-phenyl-propyl)-amide]	–	1900 nM
C[C@@H](NC(=O)c1cc(C(=O)N2CCC[C@@H]2C(F)(F)F)c2n1CCOC2)c1ccc(F)cc1 [16dk, 8-((R)-2-Trifluoromethyl-pyrrolidine-1-carbonyl)-3,4-dihydro-1H-pyrrolo[2,1-c][1,4]oxazine-6-carboxylic acid [(R)-1-(4-fluoro-phenyl)-ethyl]-amide]	–	160 nM
CCOC(=O)C[C@H]1CCCN1C(=O)c1cc(C(=O)N[C@H](C)c2ccc(F)cc2)n2c1COCC2 [16dl, ((R)-1-{6-[(R)-1-(4-Fluoro-phenyl)-ethylcarbamoyl]-3,4-dihydro-1H-pyrrolo[2,1-c][1,4]oxazine-8-carbonyl}-pyrrolidin-2-yl)-acetic acid ethyl ester]	–	62 nM
